Measured values: the supplement of paper PMC10307832

How the values were obtained:
Experiment in all cases: relative viability (nuclei count vs DMSO), 5 days (fraction); higher = more cells survive
[1] = compound: COc1cc2nc(N3CCCN(C)CC3)nc(NC3CCN(Cc4ccccc4)CC3)c2cc1OC + CC(=O)c1c(C)c2cnc(Nc3ccc(N4CCNCC4)cn3)nc2n(C2CCCC2)c1=O [Palbociclib] (partner 0.5 µM)
Outline: (§1)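 Relative viability was taken as the ratio of nuclei in treated wells to nuclei in vehicle wells. Lung cancer cell lines in 1536-well plates received compounds by pin tool one day after seeding, either one drug alone or a fixed anchor-drug dose plus five library-drug doses (not always all listed) in √10 steps. Nuclei were counted on 4× images after 5 days of treatment, and values are medians of duplicate plates.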

[2] = compound: COc1cc2nc(N3CCCN(C)CC3)nc(NC3CCN(Cc4ccccc4)CC3)c2cc1OC + Nc1nc2[nH]cc(CCc3ccc(C(=O)N[C@@H](CCC(=O)O)C(=O)O)cc3)c2c(=O)[nH]1 [Pemetrexed] (partner 0.2 µM)
Outline: as §1

AZD6482 + Decitabine = compound: Cc1cc([C@@H](C)Nc2ccccc2C(=O)O)c2nc(N3CCOCC3)cc(=O)n2c1 [AZD6482] + Nc1ncn([C@H]2C[C@H](O)[C@@H](CO)O2)c(=O)n1 [Decitabine] (partner 2 µM)
Outline: as §1

AZD6482 + Alpelisib = compound: Cc1cc([C@@H](C)Nc2ccccc2C(=O)O)c2nc(N3CCOCC3)cc(=O)n2c1 [AZD6482] + Cc1nc(NC(=O)N2CCC[C@H]2C(N)=O)sc1-c1ccnc(C(C)(C)C(F)(F)F)c1 [Alpelisib] (partner 2 µM)
Outline: as §1

Cell Line | relative viability ([1]; first compound 0.2 µM) | relative viability ([1]; first compound 0.6325 µM) | relative viability ([1]; first compound 2 µM) | relative viability ([1]; first compound 6.325 µM) | relative viability ([2]; first compound 0.2 µM) | relative viability ([2]; first compound 0.6325 µM) | relative viability ([2]; first compound 2 µM) | relative viability ([2]; first compound 6.325 µM) | relative viability (AZD6482 + Decitabine; first compound 0.08 µM) | relative viability (AZD6482 + Decitabine; first compound 0.253 µM) | relative viability (AZD6482 + Decitabine; first compound 0.8 µM) | relative viability (AZD6482 + Decitabine; first compound 2.53 µM) | relative viability (AZD6482 + Decitabine; first compound 8 µM) | relative viability (AZD6482 + Alpelisib; first compound 0.08 µM) | relative viability (AZD6482 + Alpelisib; first compound 0.253 µM) | relative viability (AZD6482 + Alpelisib; first compound 0.8 µM) | relative viability (AZD6482 + Alpelisib; first compound 2.53 µM) | relative viability (AZD6482 + Alpelisib; first compound 8 µM)
NCI-H1975 | 0.567 | 0.603 | 0.826 | 0.586 | 0.289 | 0.301 | 0.309 | 0.267 | 0.351 | 0.392 | 0.385 | 0.354 | 0.345 | 0.475 | 0.439 | 0.521 | 0.373 | 0.362
CAL-12T | 0.4 | 0.55 | 0.482 | 0.46 | 1.23 | 1.01 | 1.19 | 1.04 | – | – | – | – | – | 0.902 | 0.661 | 0.901 | 0.535 | 0.721
HCC-44 | 0.956 | 0.951 | 0.995 | 0.956 | 0.67 | 0.636 | 0.611 | 0.646 | 0.895 | 0.937 | 0.978 | 1 | 0.859 | 0.546 | 0.596 | 0.649 | 0.505 | 0.435
EKVX | 0.407 | 0.412 | 0.395 | 0.301 | 0.422 | 0.404 | 0.404 | 0.41 | 0.334 | 0.278 | 0.312 | 0.266 | 0.244 | 0.516 | 0.46 | 0.591 | 0.336 | 0.581
NCI-H1651 | 0.518 | 0.5 | 0.515 | 0.522 | 0.623 | 0.598 | 0.597 | 0.624 | 0.627 | 0.429 | 0.572 | 0.446 | 0.482 | 0.791 | 0.778 | 0.712 | 0.42 | 0.777
NCI-H1944 | 0.327 | 0.349 | 0.326 | 0.321 | 0.598 | 0.684 | 0.566 | 0.587 | 0.446 | 0.37 | 0.521 | 0.446 | 0.435 | 0.6 | 0.518 | 0.6 | 0.421 | 0.51
NCI-H1703 | – | – | – | – | – | – | – | – | – | – | – | – | – | 0.273 | 0.179 | 0.194 | 0.167 | 0.231
Calu-6 | – | – | – | – | – | – | – | – | – | – | – | – | – | 0.812 | 0.847 | 0.873 | 0.75 | 0.926
EBC-1 | – | – | – | – | – | – | – | – | – | – | – | – | – | 0.32 | 0.346 | 0.27 | 0.177 | 0.299
SW 1573 | 0.365 | 0.417 | 0.377 | 0.196 | 0.797 | 0.682 | 0.733 | 0.623 | 0.545 | 0.449 | 0.434 | 0.332 | 0.454 | 0.518 | 0.533 | 0.47 | 0.303 | 0.407
A-427 | 0.533 | 0.503 | 0.521 | 0.485 | 0.899 | 1 | 1.03 | 1.03 | 0.479 | 0.53 | 0.547 | 0.512 | 0.483 | 1.08 | 0.967 | 1.04 | 0.952 | 1.06
NCI-H2347 | 0.46 | 0.433 | 0.385 | 0.422 | 0.394 | 0.4 | 0.494 | 0.538 | 0.474 | 0.565 | 0.555 | 0.52 | 0.449 | – | 0.743 | 0.891 | 0.514 | 0.719
NCI-H1355 | 0.404 | 0.379 | 0.423 | 0.386 | 1.06 | 1.03 | 1.01 | 0.945 | 0.346 | 0.362 | 0.363 | 0.341 | 0.35 | 0.523 | 0.621 | 0.6 | 0.452 | 0.592
NCI-H358 | 0.147 | 0.118 | 0.141 | 0.139 | 0.174 | 0.168 | 0.17 | 0.173 | 0.246 | 0.218 | 0.237 | 0.185 | 0.189 | 0.657 | 0.978 | 0.705 | 0.39 | 0.833
PC-3 [JPC-3] | 0.542 | 0.591 | 0.578 | 0.468 | 0.972 | 1.15 | 1.11 | 1.01 | 0.775 | 0.827 | 0.773 | 0.714 | 0.751 | 0.855 | 0.997 | 0.983 | 0.877 | 0.97
NCI-H2228 | 0.63 | 0.808 | 0.835 | 0.509 | 0.32 | 0.347 | 0.336 | 0.26 | – | – | – | – | – | 0.477 | 0.589 | 0.578 | 0.397 | 0.539
HOP-62 | 0.436 | 0.386 | 0.506 | 0.491 | 0.318 | 0.257 | 0.3 | 0.292 | 0.197 | 0.239 | 0.229 | 0.265 | 0.209 | 1 | 0.959 | 1.19 | 0.531 | 0.903
HARA | 0.21 | 0.312 | 0.252 | 0.278 | 0.258 | 0.227 | 0.227 | 0.269 | 0.495 | 0.511 | 0.455 | 0.43 | 0.602 | 0.459 | 0.762 | 0.849 | – | 0.708
NCI-H838 | 0.185 | 0.229 | 0.213 | 0.212 | 0.259 | 0.263 | 0.293 | 0.243 | 0.436 | 0.442 | 0.433 | 0.428 | 0.364 | 0.8 | 0.98 | 0.881 | 0.679 | 0.771
NCI-H1755 | 0.446 | 0.452 | 0.393 | 0.399 | 0.459 | 0.415 | 0.414 | 0.368 | 0.709 | 0.733 | 0.749 | 0.668 | 0.6 | 0.695 | 0.719 | 0.547 | 0.336 | 0.435
